Earlier results in patent publication US9406119B2, “Estimating pharmacokinetic parameters in imaging” (INVICRO, LLC, priority 2010, dated 2016).

How the values were obtained:
[1] = molecular target: T1, αvβ3 (Homo sapiens, UniProt P05106+P06756); conditions: parameter obtained from the literature
[2] = molecular target: T1, αvβ3; conditions: parameter obtained from the literature; remark: listed apart in the source
[3] = in vivo

T1 sequence (P06756 31-889 limits assumed): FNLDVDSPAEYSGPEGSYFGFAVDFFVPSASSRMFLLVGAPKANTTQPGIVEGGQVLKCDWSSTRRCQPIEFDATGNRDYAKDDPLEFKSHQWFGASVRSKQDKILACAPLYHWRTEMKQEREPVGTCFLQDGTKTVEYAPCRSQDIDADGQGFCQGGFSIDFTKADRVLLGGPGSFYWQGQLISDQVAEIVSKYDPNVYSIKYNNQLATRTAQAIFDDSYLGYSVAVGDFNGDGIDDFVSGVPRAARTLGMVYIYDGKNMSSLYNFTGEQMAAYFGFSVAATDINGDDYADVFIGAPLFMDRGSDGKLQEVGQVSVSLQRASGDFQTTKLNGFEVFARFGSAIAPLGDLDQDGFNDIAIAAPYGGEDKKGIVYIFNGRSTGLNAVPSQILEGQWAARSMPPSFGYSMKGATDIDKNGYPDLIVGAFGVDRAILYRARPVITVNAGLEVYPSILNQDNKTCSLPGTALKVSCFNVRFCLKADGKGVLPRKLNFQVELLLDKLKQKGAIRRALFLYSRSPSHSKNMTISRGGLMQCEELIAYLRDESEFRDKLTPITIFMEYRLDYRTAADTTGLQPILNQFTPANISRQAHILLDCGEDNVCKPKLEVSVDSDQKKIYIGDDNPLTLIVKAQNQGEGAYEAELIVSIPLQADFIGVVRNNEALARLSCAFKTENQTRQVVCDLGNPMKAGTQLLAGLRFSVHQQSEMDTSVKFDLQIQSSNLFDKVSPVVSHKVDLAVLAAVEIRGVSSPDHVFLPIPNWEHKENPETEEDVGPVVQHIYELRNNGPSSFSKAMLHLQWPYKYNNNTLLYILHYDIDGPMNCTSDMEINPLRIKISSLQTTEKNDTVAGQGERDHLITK
T1 sequence (P06756 891-1048 partner limits assumed): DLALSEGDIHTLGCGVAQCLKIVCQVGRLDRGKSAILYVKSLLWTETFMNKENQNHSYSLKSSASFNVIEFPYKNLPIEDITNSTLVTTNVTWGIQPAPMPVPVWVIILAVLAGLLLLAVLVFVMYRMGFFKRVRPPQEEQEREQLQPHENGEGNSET
T1 sequence (P05106 27-788): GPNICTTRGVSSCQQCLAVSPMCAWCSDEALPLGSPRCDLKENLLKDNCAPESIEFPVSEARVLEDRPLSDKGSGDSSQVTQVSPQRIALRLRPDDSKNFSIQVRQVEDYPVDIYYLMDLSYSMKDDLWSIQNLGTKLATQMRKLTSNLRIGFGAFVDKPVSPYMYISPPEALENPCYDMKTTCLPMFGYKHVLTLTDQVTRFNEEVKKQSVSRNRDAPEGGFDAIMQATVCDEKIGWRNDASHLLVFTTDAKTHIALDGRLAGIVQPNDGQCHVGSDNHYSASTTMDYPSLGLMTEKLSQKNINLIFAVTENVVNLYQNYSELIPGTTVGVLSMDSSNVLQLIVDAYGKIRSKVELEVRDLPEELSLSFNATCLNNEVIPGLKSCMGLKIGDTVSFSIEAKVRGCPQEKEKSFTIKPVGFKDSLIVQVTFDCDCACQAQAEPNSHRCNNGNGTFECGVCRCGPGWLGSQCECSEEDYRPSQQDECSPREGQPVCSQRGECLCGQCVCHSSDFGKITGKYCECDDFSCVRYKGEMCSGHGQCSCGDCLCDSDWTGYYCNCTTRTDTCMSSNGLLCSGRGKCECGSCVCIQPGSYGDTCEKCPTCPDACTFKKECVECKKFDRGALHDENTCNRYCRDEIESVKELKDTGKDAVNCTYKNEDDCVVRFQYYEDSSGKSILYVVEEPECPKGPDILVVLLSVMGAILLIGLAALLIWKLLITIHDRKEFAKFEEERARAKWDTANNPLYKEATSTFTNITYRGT

## ^18F-galacto-RGD [^18F-galacto RGD]
[1]
  koff (CA/antigen dissociation rate constant): 0.0008 s⁻¹
  kon (CA/antigen association rate constant): 10^5 M^−1s^−1
[1]; read-out: KD=koff/kon
  Kd: 8 nM
[2]
  ke,B (internalization rate constant of the CA/antigen bound complex): 1.48e-05 s⁻¹
  kresid (rate of release of CA or CA signal from the intracellular compartment): 1.6e-05 s⁻¹
[3]
  A (fraction of fast phase of plasma clearance): 0.82
  B (fraction of slow phase of plasma clearance): 0.18
  α (fast plasma clearance rate constant): 0.0026 s⁻¹
  β (slow plasma clearance rate constant): 0.00014 s⁻¹
